Structures can show the parent of a compound that is named as a salt.

In one assay the target is isolated recombinant JAK2 kinase domain (Homo sapiens (Human), UniProt O60674).
Sequence of isolated recombinant JAK2 kinase domain (O60674 849-1124): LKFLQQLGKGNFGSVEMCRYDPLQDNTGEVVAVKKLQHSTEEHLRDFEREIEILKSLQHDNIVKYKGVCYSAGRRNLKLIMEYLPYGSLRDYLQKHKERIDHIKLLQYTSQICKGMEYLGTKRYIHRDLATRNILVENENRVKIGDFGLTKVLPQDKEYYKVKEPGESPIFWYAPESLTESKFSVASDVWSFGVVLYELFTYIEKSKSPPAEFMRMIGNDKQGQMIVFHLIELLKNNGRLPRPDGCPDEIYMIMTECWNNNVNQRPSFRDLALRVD
Assay: not given
Particulars: read-out: JAK2 Ki; isolated recombinant JAK2 kinase domain, 25 μM ATP.
In the case of `CN1CCC(N(C)C(=O)c2ccc(Nc3nc4c(N5CCC(C)(c6ccccc6)CC5)cccn4n3)cc2)CC1` [Example 1-1, N-methyl-4-(8-(4-methyl-4-phenylpiperidin-1-yl)-[1,2,4]triazolo[1,5-a]pyridin-2-ylamino)-N-(1-methylpiperidin-4-yl)benzamide], the Ki (usually a measure of affinity in units of concentration, obtained from inhibition or displacement) was 0.85 nM.

Regarding `CN1CCC(N(C)C(=O)c2ccc(Nc3nc4c(N5CCC(O)(C6CCCCC6)CC5)cccn4n3)cc2)CC1` [Example 1-2, 4-[[8-(4-cyclohexyl-4-hydroxy-1-piperidyl)-[1,2,4]triazolo[1,5-a]pyridin-2-yl]amino]-N-methyl-N-(1-methyl-4-piperidyl)benzamide], the Ki was determined as 14.2 nM.

Turning to `CN1CCC(N(C)C(=O)c2ccc(Nc3nc4c(N5CCC(O)CC5)cccn4n3)cc2)CC1` [Example 1-3, 4-[[8-(4-hydroxy-1-piperidyl)-[1,2,4]triazolo[1,5-a]pyridin-2-yl]amino]-N-methyl-N-(1-methyl-4-piperidyl)benzamide; hydrochloride], the Ki was found to be 92.4 nM.

For the compound `CN1CCC(N(C)C(=O)c2ccc(Nc3nc4c(N5CC=C(c6ccccc6)CC5)cccn4n3)cc2)CC1` [Example 1-4, N-methyl-N-(1-methyl-4-piperidyl)-4-[[8-(4-phenyl-3,6-dihydro-2H-pyridin-1-yl)-[1,2,4]triazolo[1,5-a]pyridin-2-yl]amino]benzamide], the Ki turned out to be 12.4 nM.

Take `CN1CCC(N(C)C(=O)c2ccc(Nc3nc4c(N5CCC(C)(O)CC5)cccn4n3)cc2)CC1` [Example 1-6, 4-[[8-(4-hydroxy-4-methyl-1-piperidyl)-[1,2,4]triazolo[1,5-a]pyridin-2-yl]amino]-N-methyl-N-(1-methyl-4-piperidyl)benzamide; hydrochloride]: the Ki is 39.9 nM.

Regarding `CN1CCC(N(C)C(=O)c2ccc(Nc3nc4c(N5CCCC(O)(c6ccccc6)CC5)cccn4n3)cc2)CC1` (centres unmarked) [Example 1-7, 4-[[8-(4-hydroxy-4-phenyl-azepan-1-yl)-[1,2,4]triazolo[1,5-a]pyridin-2-yl]amino]-N-methyl-N-(1-methyl-4-piperidyl)benzamide], the inhibitory constant (Ki) was determined as 6.51 nM.

As for `CN1CCC(N(C)C(=O)c2ccc(Nc3nc4c(N5CCC=C(c6ccccc6)CC5)cccn4n3)cc2)CC1` [Example 1-14, N-methyl-N-(1-methyl-4-piperidyl)-4-[[8-(4-phenyl-2,3,6,7-tetrahydroazepin-1-yl)-[1,2,4]triazolo[1,5-a]pyridin-2-yl]amino]benzamide], the Ki is 7.53 nM.

With `CN1CCC(N(C)C(=O)c2ccc(Nc3nc4c(N5CC=C(c6ccccc6)CCC5)cccn4n3)cc2)CC1` [Example 1-15, N-methyl-N-(1-methyl-4-piperidyl)-4-[[8-(5-phenyl-2,3,4,7-tetrahydroazepin-1-yl)-[1,2,4]triazolo[1,5-a]pyridin-2-yl]amino]benzamide], the Ki is 12.2 nM.

Take `CN1CCC(N(C)C(=O)c2ccc(Nc3nc4c(N5CCC(F)(c6ccccc6)CC5)cccn4n3)cc2)CC1` [Example 1-16, 4-[[8-(4-fluoro-4-phenyl-1-piperidyl)-[1,2,4]triazolo[1,5-a]pyridin-2-yl]amino]-N-methyl-N-(1-methyl-4-piperidyl)benzamide]: the Ki worked out at 25.5 nM.

In the case of `CN1CCC(N(C)C(=O)c2ccc(Nc3nc4c(N5CCC(O)(c6cccc(Cl)c6)CC5)cccn4n3)cc2)CC1` [Example 1-18, 4-[[8-[4-(3-chlorophenyl)-4-hydroxy-1-piperidyl]-[1,2,4]triazolo[1,5-a]pyridin-2-yl]amino]-N-methyl-N-(1-methyl-4-piperidyl)benzamide], the Ki worked out at 17.3 nM.

As to `CN1CCC(N(C)C(=O)c2ccc(Nc3nc4c(N5CCC(O)(c6ccncc6)CC5)cccn4n3)cc2)CC1` [Example 1-20, 4-[[8-[4-hydroxy-4-(4-pyridyl)-1-piperidyl]-[1,2,4]triazolo[1,5-a]pyridin-2-yl]amino]-N-methyl-N-(1-methyl-4-piperidyl)benzamide], the Ki is 36.8 nM.

In the case of `CN1CCC(N(C)C(=O)c2ccc(Nc3nc4c(N5CCC(O)(c6cccc(C#N)c6)CC5)cccn4n3)cc2)CC1` [Example 1-22, 4-[[8-[4-(3-cyanophenyl)-4-hydroxy-1-piperidyl]-[1,2,4]triazolo[1,5-a]pyridin-2-yl]amino]-N-methyl-N-(1-methyl-4-piperidyl)benzamide], the Ki was 32.1 nM.

Regarding `CN1CCC(N(C)C(=O)c2ccc(Nc3nc4c(N5CCC6(CNC(=O)O6)C5)cccn4n3)cc2)CC1` (centres unmarked) [Example 1-24, N-methyl-N-(1-methyl-4-piperidyl)-4-[[8-(2-oxo-1-oxa-3,7-diazaspiro[4.4]nonan-7-yl)-[1,2,4]triazolo[1,5-a]pyridin-2-yl]amino]benzamide], the Ki is 19.1 nM.

With `CN1CCC(N(C)C(=O)c2ccc(Nc3nc4c(N5CCN6CCOC[C@@H]6C5)cccn4n3)cc2)CC1` [Example 1-25, 4-[[8-[(9aS)-3,4,6,7,9,9a-hexahydro-1H-pyrazino[2,1-c][1,4]oxazin-8-yl]-[1,2,4]triazolo[1,5-a]pyridin-2-yl]amino]-N-methyl-N-(1-methyl-4-piperidyl)benzamide], the Ki turned out to be 49.1 nM.

Take `CN1CCC(N(C)C(=O)c2ccc(Nc3nc4c(N5CCC6(CC5)CNC(=O)C6)cccn4n3)cc2)CC1` [Example 1-27, N-methyl-N-(1-methyl-4-piperidyl)-4-[[8-(3-oxo-2,8-diazaspiro[4.5]decan-8-yl)-[1,2,4]triazolo[1,5-a]pyridin-2-yl]amino]benzamide]: the Ki turned out to be 17.2 nM.

In a further assay the test system is JAK1-dependent STAT6 phosphorylation downstream of IL-13 stimulation in TF-1 human erythroleukemia cells. Nature of the assay: cells. The following applies: TF-1, read-out: IL-13-pSTAT6 IC50.
Regarding `CNC(=O)C1CN(C(=O)c2ccc(Nc3nc4c(C5=CCN(C(=O)CCC(F)(F)F)CC5)cccn4n3)cc2)CCN1CCc1ccccc1` (centres unmarked) [Example 2-470, N-methyl-1-(2-phenylethyl)-4-[4-[[8-[1-(4,4,4-trifluorobutanoyl)-3,6-dihydro-2H-pyridin-4-yl]-[1,2,4]triazolo[1,5-a]pyridin-2-yl]amino]benzoyl] piperazine-2-carboxamide], the IC50 – broadly, the concentration that inhibits the measured activity by half – came to 13 nM.

For the compound `O=C(CCC(F)(F)F)N1CC=C(c2cccn3nc(Nc4ccc(C(=O)N5CCC(Cc6ccccn6)C5)cc4)nc23)CC1` (centres unmarked) [Example 2-471, 4,4,4-trifluoro-1-[4-[2-[4-[3-(2-pyridylmethyl)pyrrolidine-1-carbonyl]anilino]-[1,2,4]triazolo[1,5-a]pyridin-8-yl]-3,6-dihydro-2H-pyridin-1-yl]butan-1-one], the IC50 worked out at 6.4 nM.

`CN(Cc1ccccc1)C1CCCN(C(=O)c2ccc(Nc3nc4c(C5=CCN(C(=O)CCC(F)(F)F)CC5)cccn4n3)cc2)C1` (centres unmarked) [Example 2-472, 1-[4-[2-[4-[3-[benzyl(methyl)amino]piperidine-1-carbonyl]anilino]-[1,2,4]triazolo[1,5-a]pyridin-8-yl]-3,6-dihydro-2H-pyridin-1-yl]-4,4,4-trifluoro-butan-1-one]: the IC50 worked out at 67.9 nM.

As for `CN(C(=O)c1ccc(Nc2nc3c(C4=CCN(C(=O)CCC(F)(F)F)CC4)cccn3n2)cc1)C1CCN(Cc2ccccc2)C1` (centres unmarked) [Example 2-473, N-(1-benzylpyrrolidin-3-yl)-N-methyl-4-[[8-[1-(4,4,4-trifluorobutanoyl)-3,6-dihydro-2H-pyridin-4-yl]-[1,2,4]triazolo[1,5-a]pyridin-2-yl]amino]benzamide], the IC50 was determined as 48.1 nM.

In the case of `O=C(CCC(F)(F)F)N1CC=C(c2cccn3nc(Nc4ccc(C(=O)N5CCN(CCN6CCOCC6)CC5)cc4)nc23)CC1` [Example 2-474, 4,4,4-trifluoro-1-[4-[2-[4-[4-(2-morpholinoethyl)piperazine-1-carbonyl]anilino]-[1,2,4]triazolo[1,5-a]pyridin-8-yl]-3,6-dihydro-2H-pyridin-1-yl]butan-1-one], the IC50 is 14.1 nM.

Consider `CN1CCN(C(=O)C2CCN(C(=O)c3ccc(Nc4nc5c(C6=CCN(C(=O)CCC(F)(F)F)CC6)cccn5n4)cc3)CC2)CC1` [Example 2-475, 4,4,4-trifluoro-1-[4-[2-[4-[4-(4-methylpiperazine-1-carbonyl)piperidine-1-carbonyl]anilino]-[1,2,4]triazolo[1,5-a]pyridin-8-yl]-3,6-dihydro-2H-pyridin-1-yl]butan-1-one], for which the IC50 was 42.9 nM.

`Cc1cccnc1CN(C)C(=O)c1ccc(Nc2nc3c(C4=CCN(C(=O)CCC(F)(F)F)CC4)cccn3n2)cc1` [Example 2-476, N-methyl-N-[(3-methyl-2-pyridyl)methyl]-4-[[8-[1-(4,4,4-trifluorobutanoyl)-3,6-dihydro-2H-pyridin-4-yl]-[1,2,4]triazolo[1,5-a]pyridin-2-yl]amino]benzamide]: the IC50 was 10.5 nM.

For `CN(Cc1ccc2c(c1)CCCN2C)C(=O)c1ccc(Nc2nc3c(C4=CCN(C(=O)CCC(F)(F)F)CC4)cccn3n2)cc1` [Example 2-477, N-methyl-N-[(1-methyl-3,4-dihydro-2H-quinolin-6-yl)methyl]-4-[[8-[1-(4,4,4-trifluorobutanoyl)-3,6-dihydro-2H-pyridin-4-yl]-[1,2,4]triazolo[1,5-a]pyridin-2-yl]amino]benzamide], the IC50 came to 113 nM.

Turning to `O=C(NCCc1ccccn1)c1ccc(Nc2nc3c(C4=CCN(C(=O)CCC(F)(F)F)CC4)cccn3n2)cc1` [Example 2-478, N-[2-(2-pyridyl)ethyl]-4-[[8-[1-(4,4,4-trifluorobutanoyl)-3,6-dihydro-2H-pyridin-4-yl]-[1,2,4]triazolo[1,5-a]pyridin-2-yl]amino]benzamide], the IC50 is 4.8 nM.

Take `CN1CCC(N(C)C(=O)c2ccc(Nc3nc4c(C5=CCN(S(=O)(=O)N6CC(C)(C)C6)CC5)cccn4n3)cc2)CC1` [Example 2-479, 4-[[8-[1-(3,3-dimethylazetidin-1-yl)sulfonyl-3,6-dihydro-2H-pyridin-4-yl]-[1,2,4]triazolo[1,5-a]pyridin-2-yl]amino]-N-methyl-N-(1-methyl-4-piperidyl)benzamide]: the IC50 was determined as 239 nM.

For the compound `CN1CCC(N(C)C(=O)c2ccc(Nc3nc4c(C5=CCN(C(=O)N6CC(C)(C)C6)CCC5)cccn4n3)cc2)CC1` [Example 2-480, 4-[[8-[1-(3,3-dimethylazetidine-1-carbonyl)-2,3,4,7-tetrahydroazepin-5-yl]-[1,2,4]triazolo[1,5-a]pyridin-2-yl]amino]-N-methyl-N-(1-methyl-4-piperidyl)benzamide], the IC50 is 178 nM.

The values above are taken from patent US9873709B2 (priority 2013, dated 2018).
